Patent US20240116933A1, “INDAZOLE AND PYRAZOLOPYRIDINE COMPOUNDS AS INHIBITORS OF NLRP3 INFLAMMASOME” (BioAge Labs, Inc., priority 2022, published 2024)

Biological target: T1, NLRP3 inflammasome (Homo sapiens, UniProt Q96P20)
T1 construct: endogenous in cells; host or cells: THP-1 cells (PMA-differentiated, LPS-primed, nigericin-stimulated)
Experiment: THP-1 Cell-Based NLRP3 Activation Assay
Conditions: THP-1 cells, PMA, 100 ng/mL LPS 3 hrs, 30 min pre-incubation with test compound, 10 μM nigericin 1 hr
Description: THP-1 cells are cultured in complete media (CM) until they reach logarithmic growth and achieve a viability >90%. CM is composed of RPMI-1640 (+Glutamax)/10% fetal bovine serum/55 μM β-mercaptoethanol/pen/strep. Cells are spun down and resuspended to 1,000,000 cells/mL in CM containing either 20 nM or 500 nM PMA. 150,000 cells […] are then added to each well of a 96-well TC plate and incubated for either 24 hr or 3 hr, respectively, in a standard cell culture incubator (37° C.; 5% CO2). After this incubation, the plate is tilted and media carefully removed. 200 μL of CM containing 100 ng/mL LPS is then added to the wells and the cells incubated an additional 3 hrs. The media is again removed and replaced with Opti-Mem medium containing pre-determined dilutions of test compounds in replicate wells. After a 30 min pre-incubation with test compound, 10 μM nigericin (final concentration) in Opti-Mem medium with the corresponding concentration of compound is added to the wells for an additional 1 hr. Positive control wells contain 10 μM nigericin in Opti-Mem in the absence of test compound, while negative control wells contain Opti-Mem only. […] Once supernatants are removed, the relative viability of adherent cells in the 96-well TC plate are determined using a CellTiter-Glo® luminescent cell viability assay (Promega).

T1 sequence (Q96P20 whole entry): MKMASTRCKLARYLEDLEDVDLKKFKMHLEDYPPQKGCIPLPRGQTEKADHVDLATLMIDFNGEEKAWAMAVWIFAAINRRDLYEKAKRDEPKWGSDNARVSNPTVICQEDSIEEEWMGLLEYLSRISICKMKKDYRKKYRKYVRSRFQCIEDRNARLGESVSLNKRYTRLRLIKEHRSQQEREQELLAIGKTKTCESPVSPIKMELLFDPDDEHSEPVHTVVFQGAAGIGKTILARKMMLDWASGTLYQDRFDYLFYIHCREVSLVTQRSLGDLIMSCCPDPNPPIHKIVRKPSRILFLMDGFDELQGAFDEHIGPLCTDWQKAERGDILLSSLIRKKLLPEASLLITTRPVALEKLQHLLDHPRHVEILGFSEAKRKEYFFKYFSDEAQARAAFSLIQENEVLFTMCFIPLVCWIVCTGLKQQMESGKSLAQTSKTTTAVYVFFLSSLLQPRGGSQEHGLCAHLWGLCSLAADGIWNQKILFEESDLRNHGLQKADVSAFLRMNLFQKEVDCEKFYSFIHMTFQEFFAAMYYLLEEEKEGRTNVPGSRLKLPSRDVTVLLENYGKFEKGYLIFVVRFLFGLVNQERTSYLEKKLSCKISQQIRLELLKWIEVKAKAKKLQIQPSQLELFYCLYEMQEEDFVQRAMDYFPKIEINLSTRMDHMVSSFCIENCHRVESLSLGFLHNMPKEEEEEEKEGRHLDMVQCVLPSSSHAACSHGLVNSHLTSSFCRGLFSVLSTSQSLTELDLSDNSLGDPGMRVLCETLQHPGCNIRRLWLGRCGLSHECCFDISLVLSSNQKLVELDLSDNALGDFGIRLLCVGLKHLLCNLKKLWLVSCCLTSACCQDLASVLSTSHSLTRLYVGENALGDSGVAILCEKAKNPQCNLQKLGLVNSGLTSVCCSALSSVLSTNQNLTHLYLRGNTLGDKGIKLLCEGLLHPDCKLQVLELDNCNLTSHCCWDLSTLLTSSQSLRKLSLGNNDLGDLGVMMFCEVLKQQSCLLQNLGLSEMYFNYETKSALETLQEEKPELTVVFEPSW

Row | SMILES | IC50 [µM]
1 | CCOc1cc(C(=O)N(C)Cc2cnc(CO)c3cn[nH]c23)ccc1-c1nc(Cl)cs1 [Compound 157] | < 1
2 | CCOc1cc(C(=O)N(C)Cc2cnc(C(C)O)c3cn[nH]c23)cc(F)c1-c1cccc(C#N)c1 (centres unmarked) [Compound 090] | < 10
3 | CN(Cc1cnc(CO)c2cn[nH]c12)C(=O)c1ccc(-c2cccc(F)c2)c(OC2CCC2)c1 [Compound 137] | < 1
4 | CCOc1cc(C(=O)N(C)[C@H](C)c2c(O)ccc3cn[nH]c23)ccc1-c1cccc(F)c1 (single isomer, unassigned) [Compound 184] | < 10
5 | CCOc1cc(C(=O)N(CC)Cc2cnc(CO)c3cn[nH]c23)ccc1-c1cccc(C#N)c1 [Compound 103] | < 10
6 | CCOc1cc(C(=O)N(C)[C@@H](C)c2cc(F)cc3cn[nH]c23)ccc1-c1cccc(F)c1 [Compound 042] | < 1
7 | Cc1nc(C)c2cn[nH]c2c1CN(C)C(=O)c1cc(F)c(-c2cccc(F)c2)c(OC2CC2)c1 [Compound 119] | < 1
8 | CCOc1cc(C(=O)N(CC)Cc2cnc(C(C)O)c3cn[nH]c23)cc(F)c1-c1cccc(F)c1 (centres unmarked) [Compound 174] | < 1
9 | CCOc1cc(C(=O)N(C)[C@H](C)c2ccc(CF)c3cn[nH]c23)ccc1-c1cccc(F)c1 (single isomer, unassigned) [Compound 169] | < 10
10 | CC(C)Oc1cc(C(=O)N(C)Cc2cnc(CO)c3cn[nH]c23)ccc1-c1cccc(Cl)c1 [Compound 143] | < 1
11 | CCN(Cc1cnc(CO)c2cn[nH]c12)C(=O)c1ccc(-c2cccc(Cl)c2)c(OC2CC2)c1 [Compound 182] | < 1
12 | CCOc1cc(C(=O)N(C)Cc2cnc(CO)c3cn[nH]c23)cc(F)c1-c1cc(C#N)cs1 [Compound 073] | < 1
13 | CCOc1cc(C(=O)N(C)Cc2c(O)ccc3cn[nH]c23)ccc1-c1cccc(F)c1 [Compound 036] | < 1
14 | CCC(c1cncc2cn[nH]c12)N(C)C(=O)c1ccc(-c2cccc(F)c2)c(OC2CC2)c1 (centres unmarked) [Compound 109] | < 1
15 | Cc1ncc(CN(C)C(=O)c2cc(F)c(-c3cccc(F)c3)c(OC3CC3)c2)c2[nH]ncc12 [Compound 038] | < 1
16 | CCN(Cc1cnc(CO)c2cn[nH]c12)C(=O)c1ccc(-c2cccc(C#N)c2)c(OC2CC2)c1 [Compound 082] | < 50
17 | Cc1ncc(CNC(=O)c2cc(F)c(-c3cccc(Cl)c3)c(OC3CC3)c2)c2[nH]ncc12 [Compound 122] | < 1
18 | CN(Cc1cnc(CF)c2cn[nH]c12)C(=O)c1cc(F)c(-c2cccc(Cl)c2)c(OC2CC2)c1 [Compound 071] | < 1
19 | CCOc1cc(C(=O)N(C)[C@H](C)c2cccc3cn[nH]c23)ccc1-c1cccc(F)c1 [Compound 058] | < 50
20 | CCOc1cc(C(=O)N(C)Cc2cnc(C)c3cn[nH]c23)ccc1-c1cc(C#N)cs1 [Compound 153] | < 10
21 | CC(C)Oc1cc(C(=O)N(C)Cc2cnc(CO)c3cn[nH]c23)ccc1-c1cccc(F)c1 [Compound 134] | < 1
22 | CCOc1cc(C(=O)N(CC)Cc2cnc(CO)c3cn[nH]c23)ccc1-c1cccc(Cl)c1 [Compound 177] | < 1
23 | CCOc1nc(C(=O)N(C)[C@@H](C)c2cnc(C)c3cn[nH]c23)ccc1-c1cccc(F)c1 [Compound 123] | < 1
24 | CCOc1cc(C(=O)N(C)Cc2cnc(C(C)O)c3cn[nH]c23)cc(F)c1-c1ccsc1 (centres unmarked) [Compound 088] | < 1
25 | CN(Cc1cc(O)cc2cn[nH]c12)C(=O)c1cc(F)c(-c2cccc(C#N)c2)c(OC2CC2)c1 [Compound 111] | < 1
26 | CCOc1cc(C(=O)N(C)Cc2cc(O)cc3cn[nH]c23)cc(F)c1-c1cccc(Cl)c1 [Compound 178] | < 1
27 | CCOc1cc(C(=O)N(C)Cc2cnc(C)c3cn[nH]c23)ccc1-c1cccs1 [Compound 170] | < 1

Row | SMILES | IC50 [µM]
28 | CCCOc1cc(C(=O)N(C)Cc2cnc(CO)c3cn[nH]c23)ccc1-c1cccc(F)c1 [Compound 147] | < 1
29 | CC(O)c1ncc(CN(C)C(=O)c2ccc(-c3cccc(Cl)c3)c(OC3CC3)c2)c2[nH]ncc12 (centres unmarked) [Compound 101] | < 1
30 | CCOc1cc(C(=O)N(C)C(C)c2ccc(F)c3cn[nH]c23)ccc1-c1cccc(F)c1 (centres unmarked) [Compound 116] | < 1
31 | CCOc1cc(C(=O)N(C)Cc2cc(C(=O)OC)cc3cn[nH]c23)ccc1-c1cccc(F)c1 [Compound 008] | < 10
32 | CCOc1nc(C(=O)N(C)[C@H](C)c2cnc(C)c3cn[nH]c23)ccc1-c1cccc(F)c1 [Compound 124] | < 50
33 | CCOc1nc(C(=O)N(C)[C@@H](C)c2ccc(CF)c3cn[nH]c23)ccc1-c1cccc(F)c1 [Compound 074] | < 50
34 | CCOc1cc(C(=O)N(C)Cc2cnc(CO)c3cn[nH]c23)cc(F)c1-c1cccs1 [Compound 106] | < 1
35 | CCOc1cc(C(=O)N(C)C(CC)c2cncc3cn[nH]c23)ccc1-c1cccc(F)c1 (centres unmarked) [Compound 117] | < 1
36 | CN(Cc1cnc(CO)c2cn[nH]c12)C(=O)c1ccc(-c2cc(F)cc(F)c2)c(OC2COC2)c1 [Compound 155] | < 1
37 | CCOc1cc(C(=O)N(C)Cc2cnc(CO)c3cn[nH]c23)ccc1-c1ccc(Cl)s1 [Compound 164] | < 1
38 | Cc1nc(CO)c2cn[nH]c2c1CN(C)C(=O)c1ccc(-c2cccc(Cl)c2)c(OC2CC2)c1 [Compound 041] | < 1
39 | CCOc1cc(C(=O)N(C)Cc2cnc(CO)c3cn[nH]c23)cc(F)c1-c1cc(F)cs1 [Compound 093] | < 1
40 | CN(Cc1c(CO)ncc2cn[nH]c12)C(=O)c1cc(F)c(-c2cccc(F)c2)c(OC2CC2)c1 [Compound 139] | < 1
41 | CCN(Cc1cnc(CO)c2cn[nH]c12)C(=O)c1cc(F)c(-c2cccc(C#N)c2)c(OC2CC2)c1 [Compound 087] | < 1
42 | CN(Cc1cc(O)cc2cn[nH]c12)C(=O)c1cc(F)c(-c2cccc(Cl)c2)c(OC2CC2)c1 [Compound 113] | < 1
43 | CCOc1cc(C(=O)N(C)[C@@H](C)c2c(C)ncc3cn[nH]c23)ccc1-c1cccc(F)c1 [Compound 045] | < 10
44 | C[C@@H](c1cncc2cn[nH]c12)N(C)C(=O)c1ccc(-c2cccc(F)c2)c(OC2CC2)c1 [Compound 052] | < 1
45 | CCOc1cc(C(=O)N(C)[C@@H](C)c2cnc(C)c3cn[nH]c23)ccc1-c1cccc(F)c1 [Compound 049] | < 50
46 | CCOc1cc(C(=O)N(C)Cc2cnc(C(C)F)c3cn[nH]c23)ccc1-c1cccc(F)c1 (centres unmarked) [Compound 070] | < 1
47 | CCOc1cc(C(=O)N(C)[C@@H](C)c2cnc(CO)c3cn[nH]c23)ccc1-c1cccc(F)c1 [Compound 160] | < 1
48 | CCN(Cc1cnc(CO)c2cn[nH]c12)C(=O)c1cc(F)c(-c2cccc(F)c2)c(OC2CC2)c1 [Compound 180] | < 1
49 | Cc1nc(CO)c2cn[nH]c2c1CN(C)C(=O)c1ccc(-c2cccc(C#N)c2)c(OC2CC2)c1 [Compound 078] | < 1
50 | Cc1ncc(CN(C)C(=O)c2cc(F)c(-c3ccccc3)c(OC3CC3)c2)c2[nH]ncc12 [Compound 064] | < 1
51 | CCOc1cc(C(=O)N(C)C(C)c2cnc(CF)c3cn[nH]c23)ccc1-c1cccc(F)c1 (centres unmarked) [Compound 055] | < 1
52 | CCOc1cc(C(=O)N(C)Cc2cnc(C(C)O)c3cn[nH]c23)cc(F)c1-c1cc(C#N)cs1 (centres unmarked) [Compound 072] | < 10
53 | Cc1ncc2cn[nH]c2c1CN(C)C(=O)c1cc(F)c(-c2cccc(Cl)c2)c(OC2CC2)c1 [Compound 068] | < 1
